According to ChEMBL document CHEMBL1138548, “Three-dimensional QSAR analyses of 1,3,4-trisubstituted pyrrolidine-based CCR5 receptor inhibitors” (Eur J Med Chem, 2008):

molecular target: C-C chemokine receptor type 5 (Homo sapiens, UniProt P51681); assay: biochemical; format: cell-based, CHO
Sequence (P51681 whole entry): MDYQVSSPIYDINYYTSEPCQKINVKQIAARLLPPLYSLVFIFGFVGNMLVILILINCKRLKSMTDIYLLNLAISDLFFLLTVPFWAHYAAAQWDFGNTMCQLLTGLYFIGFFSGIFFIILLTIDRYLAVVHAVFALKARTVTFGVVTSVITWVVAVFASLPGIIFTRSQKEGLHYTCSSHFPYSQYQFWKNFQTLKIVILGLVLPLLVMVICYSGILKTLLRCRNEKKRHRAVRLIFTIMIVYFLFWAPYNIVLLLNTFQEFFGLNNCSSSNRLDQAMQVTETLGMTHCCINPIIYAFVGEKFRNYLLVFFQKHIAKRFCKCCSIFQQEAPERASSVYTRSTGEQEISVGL
Description: Displacement of [125I]MIP1alpha from human CCR5 expressed in CHO cells

IC50	Structure (SMILES)
122 nM	CCn1nc(-c2ccc(CN)cc2)cc1C1CCN(C[C@H]2CN([C@@H](C(=O)O)C3CCCCC3)C[C@@H]2c2ccccc2)CC1
0.89 nM	CCc1nc(Cc2ccccc2)oc1C1CCN(C[C@H]2CN([C@H](CC3CCC3)C(=O)O)C[C@@H]2c2ccccc2)CC1
0.3 nM	O=C(O)[C@@H](CC1CCCCC1)N1C[C@H](CN2CCC(CCC(F)(F)c3ccc(F)cc3)CC2)[C@@H](c2ccccc2)C1
0.4 nM	Cn1nnc(-c2ccc(CCCC3(O)CCN(C[C@H]4CN(CC5CCCCC5)C[C@@H]4c4ccccc4)CC3)cc2)n1
6.9 nM	CCn1nc(C(C)(C)c2ccccc2)cc1C1CCN(C[C@H]2CN([C@@H](C(=O)O)C3CCCCC3)C[C@@H]2c2ccccc2)CC1
3.6 nM	C=C(Cc1ccccc1)[C@@H](C1CCCCC1)N1C[C@H](CN2CCC(O)(CCCc3ccccc3)CC2)[C@@H](c2ccccc2)C1
0.9 nM	CC(C)C[C@H](C(=O)O)N1C[C@H](CN2CCC(CCS(=O)(=O)c3ccc(F)cc3)CC2)[C@@H](c2cccc(F)c2)C1
0.76 nM	CCc1nc(Cc2ccccc2)sc1C1CCN(C[C@H]2CN([C@H](CC3CCC3)C(=O)O)C[C@@H]2c2ccccc2)CC1
1.2 nM	O=C(O)[C@@H](C1CCCCC1)N1C[C@H](CN2CCC(c3cc(Cc4ccccc4)on3)CC2)[C@@H](c2ccccc2)C1
0.8 nM	CC(C)C[C@H](C(=O)O)N1C[C@H](CN2CCC(CCSc3ccc(F)cc3)CC2)[C@@H](c2cccc(F)c2)C1
0.5 nM	CC(C)C[C@H](C(=O)O)N1C[C@H](CN2CCC(CCC(F)(F)c3ccc(F)cc3)CC2)[C@@H](c2cccc(F)c2)C1
0.6 nM	O=C(O)[C@@H](CC1CCC1)N1C[C@H](CN2CCC(c3[nH]c(Cc4ccccc4)nc3Cl)CC2)[C@@H](c2ccccc2)C1
12 nM	O=C(O)[C@@H](CC1CCC1)N1C[C@H](CN2CCC(c3nnc4ccccn34)CC2)[C@@H](c2cccc(F)c2)C1
1 nM	CCc1nc(Cc2ccccc2)sc1C1CCN(C[C@H]2CN([C@H](CC(C)C)C(=O)O)C[C@@H]2c2ccccc2)CC1
2.1 nM	O=C(O)[C@@H](C1CCCCC1)N1C[C@H](CN2CCC(c3cc(C(F)(F)c4ccccc4)n[nH]3)CC2)[C@@H](c2ccccc2)C1
11.5 nM	CC(C)(c1ccccc1)c1cc(C2CCN(C[C@H]3CN([C@@H](C(=O)O)C4CCCCC4)C[C@@H]3c3ccccc3)CC2)[nH]n1
0.57 nM	CCc1nc(Cc2ccccc2)[nH]c1C1CCN(C[C@H]2CN([C@H](CC3CCC3)C(=O)O)C[C@@H]2c2ccccc2)CC1
3.7 nM	O=C(O)[C@@H](CC1CC1)N1C[C@H](CN2CCC(CCC(OCCO)c3ccc(F)cc3)CC2)[C@@H](c2cccc(F)c2)C1 (some centres not stated)
0.23 nM	O=C(O)[C@@H](CC1CCC1)N1C[C@H](CN2CCC(c3cnc(Cc4ccccc4)s3)CC2)[C@@H](c2ccccc2)C1
0.8 nM	O=C(O)[C@@H](C1CCCCC1)N1C[C@H](CN2CCC(c3cc(Cc4ccccc4)no3)CC2)[C@@H](c2ccccc2)C1
200 nM	O=C(O)[C@@H](CC1CCC1)N1C[C@H](CN2CCC(c3cn4cccnc4n3)CC2)[C@@H](c2cccc(F)c2)C1
0.23 nM	O=C(O)[C@@H](CC1CC1)N1C[C@H](CN2CCC(c3cnc(Cc4ccccc4)s3)CC2)[C@@H](c2ccccc2)C1
